The source of these data is patent US6468472B1 (priority 1999, dated 2002).

Data set [1] deals with pathogenic microorganisms. The following applies: cited from earlier work; for minimum effective concentration for high-level disinfection: 20° C.
The next data set has as its system Bacillus subtilis spores. The following applies: cited from earlier work.
For data set [2] the following is noted: second-order dependence on peracetic acid concentration (Yuan et al.); cited from earlier work.
A short description of data set [3]: Peracetic acid stability versus pH. The following applies: acetic acid buffer at pH 5.0-5.8. Type of data set: physicochemical.

Molecules are shown by their SMILES. Like-named read-outs stand apart in the source and are kept apart here.

Regarding `OO` [Formulation H2O2, hydrogen peroxide], the “minimum effective concentration for high-level disinfection” value in data set [1] (30 min, Sporox) is given as 6.0%. In addition, the “time for killing all Bacillus subtilis spores” value in the data set with Bacillus subtilis spores (pH 5) is on record as 3 h; in the data set with Bacillus subtilis spores (pH 8), 6 h.
For `CC(=O)OO` [PAA, peracetic acid], the “minimum effective concentration for high-level disinfection” value in data set [1] (25 min, Peract) is listed as 0.05%. The “minimum effective concentration for high level disinfection in a short time interval or sterilization over a longer soak period” value in data set [1] is 500 ppm. Moreover, the “pH of maximum decomposition rate” value in data set [2] is reported as 8.2. Besides, the “amount which can be stably maintained” value in data set [3] is listed as “less than 700 ppm”. For the same compound, the “time for killing all Bacillus subtilis spores” value in the data set on Bacillus subtilis spores (PAA at 0.013 m/l (0.10% w/v), pH 5.0) is 1 h. Besides, the “time for killing all Bacillus subtilis spores” value in the data set with Bacillus subtilis spores (PAA at 0.013 m/l (0.10% w/v), pH 8.0) is listed as > 6 h. Also, the “reduction in sporicidal rate of kill activity between pH 8.0 and pH 5.0” value in the data set with Bacillus subtilis spores (PAA at 0.13-0.38 m/l (0.99-2.89% w/v)) is “did not show a reduction”. Further, in the data set on Bacillus subtilis spores (work of Baldry), the “decrease of sporicidal activity between pH 2.6 and pH 8.0 (factor)” value was 3-10 times; the “increase in sporicidal kill time at pH 8.0 versus 5.0” value is 6 times. Moreover, the “increase in kill time at pH 2.6 versus pH 5.0” value in the data set on Bacillus subtilis spores (work of Baldry, possible factor) is given as 2 times.
